We go through 6 molecules from patent US20010007872A1, “METHOD OF TREATING ACUTE, CHRONIC AND/OR NEUROPATHIC PAIN” (priority 1998, published 2001).

One data set deals with α1-adrengergic receptor. The data set can be described thus: Displacement of specific binding of [3H]prazosin from rat forebrain membranes. The conditions noted are these: 0.2 nM [3H]prazosin, IC50 for displacement of specific binding. How it is done:
(§1) Affinity for the NR2B subunit containing NMDA receptor is measured as the IC50 for displacement of specific binding of racemic [^3H]
Forebrains of adult male Sprague Dawley rats are homogenized in 20 volumes of ice cold 50 mM Tris/HCl buffer (pH 7.7). The homogenate is centrifuged at 50,000 X g for 10 min. at 4° C. The pellet is resuspended and centrifuged under identical conditions and the final pellet is resuspended in 80 volumes of 50 mM Tris/HCl (pH 8.0) at 4° C.
For binding assays, compounds under study are added at various concentrations to 500 μg membrane protein in 1 ml of 50 mM Tris/HCl buffer, followed by [^3H]prazosin (Amersham, specific activity 33 Ci/mmol, 0.2 nM final concentration). Following incubation for 30 min at 25° C. in a shaking water bath, samples are filtered onto Whatman GFB glass fiber filters using a MB48R Cell Harvester (Brandel Research and Development Laboratories, Gaithersburg Md.). Filters are washed three times for 10 s with ice cold Tris HCl buffer and the radioactivity trapped on the filter quantified by liquid scintillation spectroscopy. Nonspecific binding is determined in parallel incubations containing 100 nM prazosin. Specific binding is defined as total binding minus nonspecific binding.

The target of data set [1] is T1, NR2B subunit containing NMDA receptor (Rattus norvegicus, UniProt P35439+Q00960).
T1 construct: from rat forebrain membranes; from tissue; host or cells: forebrain membranes of adult male CD rats
Put plainly: Displacement of specific binding of racemic [3H](+)-(1S, 2S)-1-(4-hydroxy-phenyl)-2-(4-hydroxy-4-phenylpiperidino)-1-propanol ([3H]CP-101,606) from rat forebrain membranes. The conditions noted are these: for Ratio [3H]Prazosin/[3H](+)-(1S, 2S)-1-(4-hydroxy-phenyl)-2-(4-hydroxy-4-phenylpiperidino)-1-propanol: selectivity for NR2B NMDA receptor over α1 adrenergic receptor, ratio of the two IC50, greater than three is considered selective. The method, then: This affinity is assessed in a radioligand binding assay as described below.
The binding of racemic [^3H] […] Forebrains of adult male CD rats are homogenized in 0.32M sucrose at 4° C. The crude nuclear pellet is removed by centrifugation at 1,000×g for 10 min., and the supernatant centrifuged at 17,000×g for 25 min. The resulting pellet is resuspended in 5 mM Tris acetate pH 7.4 at 4° C. for 10 min. to lyse cellular particles and again centrifuged at 17,000×g. The resulting pellet is washed twice in Tris acetate, resuspended at 10 mg protein/ml and stored at −20° C. until use.
For binding assays, membranes are thawed, homogenized, and diluted to 0.5 mg protein/ml with 50 mM Tris HCl, pH 7.4. Compounds under study are added at various concentrations followed by racemic [^3H] […] Filters are washed for 10 s with ice cold Tris HCl buffer and the radioactivity trapped on the filter quantified by liquid scintillation spectroscopy. […] Specific binding is defined as total binding minus nonspecific binding.
as §1

T1 sequence (Q00960 27-1482, other chains not shown): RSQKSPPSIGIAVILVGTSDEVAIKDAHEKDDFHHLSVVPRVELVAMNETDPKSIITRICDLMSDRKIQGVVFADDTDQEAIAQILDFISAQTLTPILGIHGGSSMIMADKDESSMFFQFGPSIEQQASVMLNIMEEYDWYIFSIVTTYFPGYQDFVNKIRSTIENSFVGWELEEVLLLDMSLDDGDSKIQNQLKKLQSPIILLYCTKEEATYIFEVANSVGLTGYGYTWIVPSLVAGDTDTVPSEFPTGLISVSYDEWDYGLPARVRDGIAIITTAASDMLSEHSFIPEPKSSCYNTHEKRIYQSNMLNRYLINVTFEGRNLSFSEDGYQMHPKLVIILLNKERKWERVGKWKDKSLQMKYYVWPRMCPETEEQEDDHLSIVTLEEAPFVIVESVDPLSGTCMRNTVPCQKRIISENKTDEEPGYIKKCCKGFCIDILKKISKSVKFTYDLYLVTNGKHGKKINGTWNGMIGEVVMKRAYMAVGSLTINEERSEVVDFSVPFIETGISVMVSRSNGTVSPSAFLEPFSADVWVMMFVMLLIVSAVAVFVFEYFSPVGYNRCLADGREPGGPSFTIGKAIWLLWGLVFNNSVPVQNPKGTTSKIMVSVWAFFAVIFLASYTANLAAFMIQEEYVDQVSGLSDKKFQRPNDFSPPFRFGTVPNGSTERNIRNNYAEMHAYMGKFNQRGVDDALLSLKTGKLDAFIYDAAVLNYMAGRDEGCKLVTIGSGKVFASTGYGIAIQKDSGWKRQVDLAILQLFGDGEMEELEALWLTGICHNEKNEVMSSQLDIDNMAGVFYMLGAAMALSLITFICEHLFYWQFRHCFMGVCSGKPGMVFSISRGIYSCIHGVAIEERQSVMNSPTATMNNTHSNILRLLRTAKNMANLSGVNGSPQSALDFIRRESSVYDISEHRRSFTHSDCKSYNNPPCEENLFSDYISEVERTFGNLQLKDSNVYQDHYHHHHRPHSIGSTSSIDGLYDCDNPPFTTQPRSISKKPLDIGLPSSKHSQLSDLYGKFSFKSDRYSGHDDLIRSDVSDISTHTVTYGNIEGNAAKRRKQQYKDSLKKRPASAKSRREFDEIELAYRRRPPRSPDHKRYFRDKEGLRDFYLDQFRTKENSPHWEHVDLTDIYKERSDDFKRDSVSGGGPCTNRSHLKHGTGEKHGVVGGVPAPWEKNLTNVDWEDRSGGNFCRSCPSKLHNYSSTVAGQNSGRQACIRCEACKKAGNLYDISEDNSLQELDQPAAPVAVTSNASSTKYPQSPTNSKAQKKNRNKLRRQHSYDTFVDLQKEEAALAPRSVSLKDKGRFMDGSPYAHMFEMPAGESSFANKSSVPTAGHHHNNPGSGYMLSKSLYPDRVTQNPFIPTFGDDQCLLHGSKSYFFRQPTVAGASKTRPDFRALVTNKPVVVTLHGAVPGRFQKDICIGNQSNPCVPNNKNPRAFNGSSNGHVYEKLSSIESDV

For orientation: IC50 means the midpoint of a concentration-inhibition curve. The low end stands for inhibition by little substance, the high end for a need for much substance. Molecule `Oc1ccc2c(c1)OC[C@@H](N1CCC(O)(c3ccc(F)cc3)CC1)[C@H]2O` [(3R,4S)-3-[4-(4-fluorophenyl)-4-hydroxy-piperidin-1-yl] -chroman-4,7-diol] displayed a concentration for half-maximal inhibition (IC50) at α1-adrengergic receptor above 10000 nM. In data set [1], the IC50 stood at 18 ± 3 nM and the “Ratio [3H]Prazosin/[3H](+)-(1S, 2S)-1-(4-hydroxy-phenyl)-2-(4-hydroxy-4-phenylpiperidino)-1-propanol” value (shortened to “Ratio”) is listed as “≧555”.
A word on the melting point: it is the temperature of the solid-liquid transition. On to `Oc1ccc2c(c1)OCC(N1CCC(O)(c3ccc(F)cc3)CC1)[C@H]2O` (stereo in doubt), for which the melting point was 159 to 160 °C.
Take `C[C@@H]([C@@H](O)c1ccc(O)cc1)N1CCC(O)(c2ccccc2)CC1` [(1S,2S)-1-(4-hydroxyphenyl)-2-(4-hydroxy-4-phenylpiperidin-1-yl)-1-propanol]: the IC50 on α1-adrengergic receptor was found to be 19500 nM.
The molecule `COc1cc([C@H](O)[C@H](C)N2CCC(O)(c3ccccc3)CC2)ccc1O` [1S, 2S 1-(4-hydroxy-3-methoxyphenyl)-2-(4-hydroxy-4-phenyl-piperidin-1-yl)-propan-1-ol] returned an IC50 on α1-adrengergic receptor of 8100 nM. Moreover, in data set [1], the IC50 is 94 nM and the “Ratio” value is reported as 86.
Regarding `Cc1cc([C@@H](OS(C)(=O)=O)[C@@H](C)N2CCC(O)(c3ccc(F)cc3)CC2)ccc1O` (racemic) [(1R*, 2R*)-1-(4-hydroxy-3-methylphenyl)-2-(4-(4-fluorophenyl)-4-hydroxypiperidin-1-yl)-propan-1-ol-mesylate], the IC50 on α1-adrengergic receptor is 10000 nM. In addition, in data set [1], the “Ratio” value is given as 714.
As for `OC(CN1CCC(Cc2ccc(F)cc2)CC1)c1ccc(Cl)cc1` (stereo not shown) [Eliprodil, reference compound], the IC50 at α1-adrengergic receptor is 980 ± 220 nM; in data set [1], 450 ± 130 nM. For the same molecule, in data set [1], the “Ratio” value came out at 2.2.
